Data from patent US20060019883A1, “Use of cyclin D1 inhibitors” (priority 2003, published 2006).
Entries after “also recorded” stand apart in the source; their conditions may differ.

Tested on: ER-positive breast cancer
Assay: Randomised clinical trial: 2 years of tamoxifen treatment or no adjuvant treatment, breast cancer specific survival in relation to cyclin D1
Type: in vivo, patients
Conditions: for Median survival time of deceased patients / Mortality rate: tumours with >90% ER positive cells
Description: The breast cancer material used in this study initially included 168 post-menopausal (>55 years old) patients with small (T0-T1) node-negative (N0) tumours. […] Data regarding breast cancer specific survival was obtained from the Swedish Cancer Registry (2002) resulting in a mean follow-up time of 18 years (range 15-22 years). Representative parts of the tumours were assembled in a tissue array, sectioned and immunohistochemically stained for ER (antibodies M7047 from Dako, Denmark, diluted 1/200) and cyclin D1 (M7155, Dako, Denmark, 1/100). […] The alternative model is that cyclin D1 could sequester cdk-inhibitors thereby effecting the G1/S control and tamoxifen response.
E: Cumulative total survival in the patient group of cyclin D1 high breast cancer subdivided according to tamoxifen treatment or nor treatment.

[1] = High CD1 and tamoxifen treatment
[2] = Moderate/low CD1 and tamoxifen treatment

Question: With `CC/C(=C(\c1ccccc1)c1ccc(OCCN(C)C)cc1)c1ccccc1` [tamoxifen] as the molecule, how does the “Difference in survival for tamoxifen in comparison to no treatment” value (102 tumours with >90% ER positive cells) read?
Answer: marked difference in survival

Question: And the “Median survival time of deceased patients” value [1]?
Answer: 47 months*

Question: And the Mortality rate [1]?
Answer: 39%

Question: And the “Median survival time of deceased patients” value [2]?
Answer: 169 months

Question: And the Mortality rate [2]?
Answer: 63%

Question: What about the “Difference in survival for tamoxifen in comparison to no treatment” value (tumours lacking or expressing low ER and tumours with 10-90% ER positive cells) of the same molecule?
Answer: did not show any significant difference in survival

Question: And the “Difference in survival between tamoxifen and no treatment” value (tumours with high cyclin D1)?
Answer: this difference was eliminated; also recorded: little or no effect
